The text below walks through data of patent US8993622B2, “Antiviral compounds” (Eirium AB, priority 2010, dated 2015).

The subject of one data set is Ad5 hexon protein. Kind of data set: FACS analysis of Ad5 hexon protein expression in A549 cells. It counts as cell-based, human adenovirus. The note with it: 24 h. On the procedure: FIG. 4. A. Binding of ^35S-labelled Ad5 to A549 cells in the presence of A02. Error bars represent the standard deviation of the means from three independent duplicate experiments. B. Flowcytometry assay detecting Ad5 (grey bars) and Ad11 (checkered bars) hexon protein following 24 h incubation with virus and compound A02. Error bars represent the standard deviation of the means from two independent duplicate experiments.
A binding assay using isotope-labeled virions was used to address whether the compound would prevent viral adhesion to host cells. At 15 μM, compound A02 has no effect on Ad5 binding to the surface of A549 cells (FIG. 4A). To further verify inhibition of viral replication, the effect on the expression of the most abundant viral structural protein (hexon) in A549 cells was studied by FACS analysis.

The nature of data set [1]: Toxicity in the A549 cell system (XTT assay). The class given is cell-based. The conditions noted are these: human, A549 cells, read-out: 50% cytotoxic concentration (CC50). On the procedure:
FIG. 3. Titration of the effect of A02 on Ad5, Ad11p and the toxic effect in A549 cells following 24 h incubation with virus and/or compound A02. […] IC50 is the concentration at which the Ad replication is inhibited by 50% as determined by qPCR and CC50 is the concentration at which the cytotoxicity is 50%, i.e. 50% of the cells are viable, as determined by the XTT assay. Error bars represent the standard deviation of the means from three independent duplicate experiments.

In data set [2] the test system is Ad5 binding to A549 cells. Kind of data set: Binding of 35S-labelled Ad5 virions to A549 cells. The note with it: 15 μM. It counts as cell-based, human adenovirus. On the procedure: A549 cells were washed twice and detached from the culture flask with 0.05% EDTA in PBS, resuspended in culture medium, and allowed to recover for 1 h at 37° C. The cell suspension was centrifuged at room temperature at 450 g for 5 min and resuspended in PBS containing 1% FBS and 0.01% NaN3 (PBS-FBS-NaN3); 200,000 cells per well were dispensed in a 96-well microtiter plate (Nunc). The plate was placed on ice and the compound was added to final concentrations of 5 μM and 15 μM. The final concentration of DMSO was less than 1% in all samples. Five pg […] Ad5 virions (with labeling done as described previously by Segerman et al. 2003 (Journal of Virology 77:1157-1162)) were added per cell and the plate was incubated on ice on a rocking platform for 1 h. Following incubation the cells were washed three times with PBS-FBS-NaN3, pelleted by centrifugation at 800 g for 5 min at 4° C. and resuspended in 100 μl PBS. The suspension was transferred to scintillation tubes containing 2 ml scintillation liquid (Wallac OptiPhase HiSafe 3, PerkinElmer) and cell-associated radioactivity was measured as counts per minute (cpm) using a liquid scintillation counter (Wallac 1409).

Another data set has as its target T1, Tn5 transponase (Escherichia coli, UniProt Q46731).
T1 sequence (Q46731 1-476): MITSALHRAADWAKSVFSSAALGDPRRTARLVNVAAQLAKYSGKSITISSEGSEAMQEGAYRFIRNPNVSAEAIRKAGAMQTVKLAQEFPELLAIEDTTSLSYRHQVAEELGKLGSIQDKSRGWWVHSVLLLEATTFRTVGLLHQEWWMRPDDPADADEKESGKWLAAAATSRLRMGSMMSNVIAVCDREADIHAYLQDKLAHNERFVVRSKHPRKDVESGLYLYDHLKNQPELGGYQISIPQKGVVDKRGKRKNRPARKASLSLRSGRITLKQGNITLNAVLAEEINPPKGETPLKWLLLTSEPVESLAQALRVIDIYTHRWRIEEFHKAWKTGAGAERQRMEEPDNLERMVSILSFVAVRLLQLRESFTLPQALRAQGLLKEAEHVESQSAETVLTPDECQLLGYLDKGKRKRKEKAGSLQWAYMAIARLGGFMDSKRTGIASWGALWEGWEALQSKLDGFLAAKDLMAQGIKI
The note with it: US 2006/0035245; cited from earlier work.

For the compound `O=C(Nc1ccccc1C(=O)Nc1ccccc1C(=O)O)c1ccccc1` [Compound A02, 2-[[2-(Benzoylamino)benzoyl]amino]-benzoic acid], the “expression of Ad5 hexon protein” value in the data set with Ad5 hexon protein is recorded as “inhibited by compound A02 in a dose-dependent manner”. Besides, in data set [1], the CC50 at 24 h was 199 µM. Moreover, the “effect on Ad5 binding to the surface of A549 cells” value in data set [2] is given as “no effect”. Besides, at Tn5 transponase, the “inhibition of Tn5 transponase” value is “found to inhibit”.
